In PubChem BioAssay AID1963973 (Molecular Pharmacology Branch, DTP, NCI, 2024):

Test system: 883617-216-R-J1-PDC tumor spheroids, viability
Assay: Anticancer human tumor 883617-216-R-J1-PDC patient-derived bladder carcinoma cell line growth inhibition [PI3K]
Conditions: spheroids with HUVEC and MSC; for viability, T/C: stronger effect = lower value; active = viability on the fitted dose curve at most 10% of control; inactive = the rest
Procedure, shortened: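 Tumor cells grown as multi-cell spheroids with HUVEC endothelial cells and MSC fibroblast-like stroma were treated with targeted agents combined with inavolisib, alpelisib, duvelisib or copanlisib. Doses fell in half-log steps from near clinical Cmax, else from 10 microM. Viability was measured.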

[1] = curve of first compound, second compound 0.0316 µM
[2] = curve of first compound, second compound 0.1 µM
[3] = curve of first compound, second compound 0.316 µM
[4] = curve of first compound, second compound 1 µM
[5] = curve of first compound, second compound 3.16 µM
[6] = curve of first compound, second compound 10 µM
[7] = second compound 0.0316 µM, first compound 0.0316 µM
[8] = second compound 0.0316 µM, first compound 0.1 µM
[9] = second compound 0.0316 µM, first compound 0.316 µM
[10] = second compound 0.0316 µM, first compound 1 µM
[11] = second compound 0.0316 µM, first compound 3.16 µM
[12] = second compound 0.0316 µM, first compound 10 µM
[13] = second compound 0.1 µM, first compound 0.0316 µM
[14] = second compound 0.1 µM, first compound 0.1 µM
[15] = second compound 0.1 µM, first compound 0.316 µM
[16] = second compound 0.1 µM, first compound 1 µM
[17] = second compound 0.1 µM, first compound 3.16 µM
[18] = second compound 0.1 µM, first compound 10 µM
[19] = second compound 0.316 µM, first compound 0.0316 µM
[20] = second compound 0.316 µM, first compound 0.1 µM
[21] = second compound 0.316 µM, first compound 0.316 µM
[22] = second compound 0.316 µM, first compound 1 µM
[23] = second compound 0.316 µM, first compound 3.16 µM
[24] = second compound 0.316 µM, first compound 10 µM
[25] = second compound 1 µM, first compound 0.0316 µM
[26] = second compound 1 µM, first compound 0.1 µM
[27] = second compound 1 µM, first compound 0.316 µM
[28] = second compound 1 µM, first compound 1 µM
[29] = second compound 1 µM, first compound 3.16 µM
[30] = second compound 1 µM, first compound 10 µM
[31] = second compound 3.16 µM, first compound 0.0316 µM
[32] = second compound 3.16 µM, first compound 0.1 µM
[33] = second compound 3.16 µM, first compound 0.316 µM
[34] = second compound 3.16 µM, first compound 1 µM
[35] = second compound 3.16 µM, first compound 3.16 µM
[36] = second compound 3.16 µM, first compound 10 µM
[37] = second compound 10 µM, first compound 0.0316 µM
[38] = second compound 10 µM, first compound 0.1 µM
[39] = second compound 10 µM, first compound 0.316 µM
[40] = second compound 10 µM, first compound 1 µM
[41] = second compound 10 µM, first compound 3.16 µM
[42] = second compound 10 µM, first compound 10 µM
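Note: spheroids exposed to agents for 7 days before the viability read.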

CC(Nc1ccc2c(c1)OCCn1cc(N3C(=O)OCC3C(F)F)nc1-2)C(N)=O (stereo unspecified)
72 nM [middle of 8 runs]: IC50 (compound alone, run of 04/24/2023)
inactive: viability, T/C (compound 0.00316 µM) 96.5% [middle of 8 runs] | viability, T/C (compound 0.01 µM) 91.7% [middle of 8 runs] | viability, T/C (compound 0.0316 µM) 71.5% [middle of 8 runs] | viability, T/C (compound 0.1 µM) 40.2% [middle of 8 runs] | viability, T/C (compound 0.316 µM) 29.8% [middle of 8 runs] | viability, T/C (compound 1 µM) 18.9% [middle of 8 runs]

Cn1nccc1Nc1nccc(-c2ccn(C(CO)c3ccc(Cl)c(F)c3)c(=O)c2)n1 (stereo unspecified) + CC(Nc1ncnc2nc[nH]c12)c1cc2cccc(Cl)c2c(=O)n1-c1ccccc1
7.48 µM: IC50 [3]
< 0.0316 µM: IC50 [6]
0.764 µM: IC50 [5]
5.28 µM: IC50 [2]
4.18 µM: IC50 [4]
inactive: viability, T/C [7] 100% | viability, T/C [8] 90.3% | viability, T/C [9] 72.5% | viability, T/C [10] 67.4% | viability, T/C [11] 66.5% | viability, T/C [12] 43.5% | viability, T/C [13] 87.3% | viability, T/C [14] 86.8% | viability, T/C [15] 70.1% | viability, T/C [16] 62.6% | viability, T/C [17] 65.3% | viability, T/C [18] 38.6% | viability, T/C [19] 88.4% | viability, T/C [20] 71.2% | viability, T/C [21] 71.2% | viability, T/C [22] 66.8% | viability, T/C [23] 64% | viability, T/C [24] 44% | viability, T/C [25] 77.9% | viability, T/C [26] 74.6% | viability, T/C [27] 64.5% | viability, T/C [28] 61% | viability, T/C [29] 52% | viability, T/C [30] 43.6% | viability, T/C [31] 63.7% | viability, T/C [32] 69.5% | viability, T/C [33] 50% | viability, T/C [34] 50.3% | viability, T/C [35] 37.2% | viability, T/C [36] 24.9% | viability, T/C [37] 46.7% | viability, T/C [38] 40.9% | viability, T/C [39] 35.7% | viability, T/C [40] 31.4% | viability, T/C [41] 29.5% | viability, T/C [42] 22.2%
7.98 µM: IC50 [1]

C#Cc1c(F)ccc2cc(O)cc(-c3ncc4c(N5CC6CCC(C5)N6)nc(OCC56CCCN5CC(F)C6)nc4c3F)c12 (stereo unspecified) + Cc1nc(NC(=O)N2CCCC2C(N)=O)sc1-c1ccnc(C(C)(C)C(F)(F)F)c1
6.56 µM: IC50 [2]
inactive: viability, T/C [7] 81.1% | viability, T/C [8] 89.1% | viability, T/C [9] 77.6% | viability, T/C [10] 80.9% | viability, T/C [11] 79.7% | viability, T/C [12] 57.5% | viability, T/C [13] 69.8% | viability, T/C [14] 66.5% | viability, T/C [15] 76.8% | viability, T/C [16] 74.2% | viability, T/C [17] 63.1% | viability, T/C [18] 41.1% | viability, T/C [19] 53.8% | viability, T/C [20] 47.3% | viability, T/C [21] 45.5% | viability, T/C [22] 46.5% | viability, T/C [23] 43.7% | viability, T/C [24] 24.7% | viability, T/C [25] 28.2% | viability, T/C [26] 28.3% | viability, T/C [27] 26.8% | viability, T/C [28] 29% | viability, T/C [29] 24.7% | viability, T/C [30] 19.9% | viability, T/C [31] 15.2% | viability, T/C [32] 13.1% | viability, T/C [33] 12.6% | viability, T/C [34] 14.5% | viability, T/C [35] 15.3% | viability, T/C [36] 8.2%
< 0.0316 µM: IC50 [3] | IC50 [4] | IC50 [5] | IC50 [6]
> 10 µM: IC50 [1]
active: viability, T/C [37] 7.88% | viability, T/C [38] 7.4% | viability, T/C [39] 5.56% | viability, T/C [40] 7.83% | viability, T/C [41] 5.24% | viability, T/C [42] 0.61%
